For one assay, the system named is Tetranychus urticae egg. Description: Mite egg hatching inhibitory activity (toxicity to mite eggs), leaf-immersing method. In kind it is in vivo. The procedure:
(§1) Mite egg hatching inhibitory activity determination trial: The trial was carried out using a leaf-immersing method. A mother solution of the technical material with a mass concentration of 1 wt % was prepared with acetone for later use, and diluted with deionized water comprising 0.1 wt % Tween 80 to a series of trial concentrations. A 1.2% aqueous agar was poured into a Petri dish with a diameter of 9 cm and cooled for later use. Twenty adult mites were selected and inoculated onto pepper leaves. After 2 days, the adult mites were removed, and the number of mite eggs is counted. The leaves with eggs were immersed in the prepared agent liquid for 10 s and then taken out. The leaves were placed in a Petri dish and moisturized. Each treatment was repeated 3 times. A 0.1 wt % aqueous solution of Tween 80 was used to set up a blank control. These treatments were placed in a biochemical incubator at 24±1° C. After mite eggs of the blank control group hatched, the trial results were checked, and the hatchability rate was calculated.

Another assay relates to Panonychus citri egg. The description is as above. In kind it is in vivo. Here is the method:
as §1

For assay [1], the system named is Tetranychus cinnabarinus egg. The description is as above. Type of assay: in vivo. Here is the method:
as §1

Assay [2] deals with Tetranychus viennensis egg. The assay is described as above. Type of assay: in vivo. The procedure: as §1
The subject of assay [3] is Tetranychus cinnabarinus Adult female mite. The experiment in a line: Oviposition inhibitory activity determination trial. In kind it is in vivo. The settings on record: 144 h, read-out: 6-day oviposition inhibition rate; for inhibition at 1 µg/mL: trial concentration 1 mg/L; for inhibition at 5 µg/mL: trial concentration 5 mg/L. The procedure: (§2) Oviposition inhibitory activity determination trial: A mother solution of the technical material with a mass concentration of 1 wt % was prepared with acetone for later use, and diluted with deionized water comprising 0.1 wt % Tween 80 to a series of trial concentrations. Fresh leaves of cowpea seedlings were selected and cut into round leaf disks with a diameter of about 5.0 cm. The leaf disks were placed in a plastic Petri dish with filter paper and degreased cotton spread in it. 5 mg/L and 10 mg/L treatment agents were applied to the back of the leaves with cotton swabs. An aqueous solution with the same solvent proportion was used as a control agent. After the agent liquid was naturally evaporated under indoor conditions, about 20 female adult mites aged 3-5 days were inoculated onto each leaf. Each treatment was repeated 5 times, about 100 mites were treated The mites were kept in the same conditions, and observed under a binocular dissecting microscope every 24 h over 6 consecutive days, and the number of laid eggs was recorded for each treatment. After the trial ended, the oviposition inhibition rate was calculated for each treatment.

Assay [4] concerns Tetranychus viennensis Adult female mite. The description is as above. Type of assay: in vivo. The conditions noted are these: 144 h, read-out: 6-day oviposition inhibition rate; for inhibition at 1 µg/mL: trial concentration 1 mg/L; for inhibition at 5 µg/mL: trial concentration 5 mg/L. The procedure: as §2
Assay [5] has as its system Tetranychus urticae Adult female mite. Described as above. Type of assay: in vivo. The settings on record: 144 h, read-out: 6-day oviposition inhibition rate; for inhibition at 1 µg/mL: trial concentration 1 mg/L; for inhibition at 5 µg/mL: trial concentration 5 mg/L. The procedure:
as §2

For assay [6], the system named is Panonychus citri Adult female mite. Described as above. The conditions noted are these: 144 h, read-out: 6-day oviposition inhibition rate; for inhibition at 1 µg/mL: trial concentration 1 mg/L; for inhibition at 5 µg/mL: trial concentration 5 mg/L. In kind it is in vivo. The procedure:
as §2

Assay [7] deals with Tetranychus cinnabarinus eggs. Description: Toxicity to Tetranychus cinnabarinus eggs in different areas. In kind it is in vivo. The conditions noted are these: for LC50: Tetranychus cinnabarinus. Here is the method: as §1
The procedure was the same as above except that the assay for toxicity to Tetranychus cinnabarinus eggs was carried out in different areas.

The next assay deals with Maize armyworm egg. The experiment in a line: Egg hatchability inhibition, leaf-immersing method. Type of assay: in vivo, Mythimna separate (Walker). The settings on record: read-out: Hatchability inhibition. The procedure:
(§3) Maize armyworm egg: The trial was carried out using a leaf-immersing method. A mother solution of the technical material with a mass concentration of 1 wt % was prepared with acetone, and diluted with deionized water comprising 0.1 wt % Tween 80 to trial concentrations for later use. 1.2% agar was poured into a Petri dish with a diameter of 9 cm and cooled for later use. Two-leaf one-core corn seedlings were placed in the Petri dish when adult maize armyworms were at the great oviposition phase. After 1 day, the […] seedlings were taken out. Corn seedlings with 20-30 eggs in it were selected and immersed in the agent liquid for 10 s and then taken out, and the corn seedlings were placed in a Petri dish and moisturized. Each treatment was repeated 3 times. A 0.1 wt % aqueous solution of Tween 80 was used to set up a blank control, and the blank control was placed in an insect-raising chamber at 25° C. After larvae of the blank control group hatched, the trial results were checked, and the hatchability was calculated.

A further assay concerns Diamondback moth egg. The experiment in a line: Egg hatchability inhibition, leaf-immersing method. The settings on record: Plutella xylostella, read-out: Hatchability inhibition. In kind it is in vivo, Plutella xylostella (Linnaeus). The procedure:
as §3, with “Diamondback moth” for “Maize armyworm”, “radish” for “corn”, “diamondback moths” for “maize armyworms”, “Radish” for “Corn”

For the next assay, the system named is Bemisia tabaci egg. The experiment in a line: Egg hatching inhibition, potting spray method. In kind it is in vivo. The settings on record: read-out: Hatchability inhibition. Here is the method: Bemisia tabaci egg: A potting spray method was adopted. A mother solution of the technical material with a mass concentration of 1 wt % was prepared with acetone for later use, and a series of trial concentrations were prepared using a 0.1 wt % aqueous solution of Tween 80. Potted pepper plants growing at the same pace were selected. Every 6 potted pepper plants were counted as a treatment unit and placed in an insect-raising cage. About 500 silverleaf whiteflies were inoculated into each insect-raising cage and normally kept for 2 days, and then the adults were removed. After the agent was prepared, it was used to spray the pepper plants. After the spraying, the plants were placed in the insect-raising cages. A 0.1 wt % aqueous solution of Tween 80 was used to set up a blank control, and the blank control was placed in an insect-raising chamber at 25° C. After […] nymphs of the blank control group hatched, the number of nymphs in each treatment unit was counted, and the hatching inhibition rate was calculated.

In another assay the test system is Bradysia odoriphaga egg. Description: Egg toxicity, agent liquid quantitative dropwise addition method. Type of assay: in vivo. The conditions noted are these: 120 h, read-out: Hatchability inhibition. The procedure: Bradysia odoriphaga egg: The trial was carried out by using an agent liquid quantitative dropwise addition method. A mother solution of the technical material with a mass concentration of 1 wt % was prepared with acetone for later use, and a series of trial concentrations were prepared using a 0.1 wt % aqueous solution of Tween 80. Bradysia odoriphaga eggs aged 2 days were picked up. Each treatment unit comprised 20 eggs. The eggs were placed in a Petri dish with a diameter of 9 cm with filter paper spread in it. 600 μL of agent liquid was dropwise added with a pipette onto the eggs, and 600 μL of agent liquid onto the filter paper. Each treatment was repeated 3 times. A 0.1 wt % aqueous solution of Tween 80 was used to set up a blank control, and the blank control was placed in a biochemical incubator at 24±1° C. after treatment. Five days after application, the trial results were checked.

The structures appear in SMILES notation. In brackets after ≈: the same amount, converted by molar mass. Like-named read-outs stand apart in the source and are kept apart here.

The values below come from patent US12599133B2, “Use of trifluenfuronate for prevention and treatment of agricultural pest insects and mites” (SHANDONG UNITED PESTICIDE INDUSTRY CO., LTD., priority 2020, dated 2026).

`CCOc1cc(C(C)(C)C)ccc1C1COC(c2c(F)cccc2F)=N1` (stereo not shown) [Etoxazole]: the LC50 – broadly, the concentration that kills 50% of the test population – in the assay with Tetranychus urticae egg was 17.8 µg/mL (≈ 49.5 µM); in the assay on Panonychus citri egg, 21.6 µg/mL (≈ 60 µM); in assay [1] it was 18.5 µg/mL (≈ 51.6 µM); in assay [2], 17.6 µg/mL (≈ 49 µM); in [7] (area Fangcun, Taian) it was 15.4 µg/mL (≈ 42.8 µM); in [7] (area Jiyang, Jinan), 5.37 µg/mL (≈ 14.9 µM). Besides, the LC50 worked out at 26 µg/mL (≈ 72.3 µM) in assay [7] (area Qihe, Dezhou) and 7.21 µg/mL (≈ 20.1 µM) in assay [7] (area Shouguang, Weifang). Besides, the LC90 in the assay on Tetranychus urticae egg stood at 135.01 µg/mL (≈ 376 µM); in the assay with Panonychus citri egg, 123.59 µg/mL (≈ 344 µM); in [1], 124.23 µg/mL (≈ 346 µM); in assay [2], 88.51 µg/mL (≈ 246 µM); in [7] (area Fangcun, Taian) it was 168.95 µg/mL (≈ 470 µM); in [7] (area Jiyang, Jinan), 62.95 µg/mL (≈ 175 µM). The LC90 stood at 162.82 µg/mL (≈ 453 µM) in assay [7] (area Qihe, Dezhou) and 69.57 µg/mL (≈ 194 µM) in assay [7] (area Shouguang, Weifang). Besides, the inhibition (commonly the change of the read-out against control, counted positive when it falls) at 1 µg/mL in assay [3] was found to be 35.7%; in assay [4], 27%; in assay [5] it was 35.9%; in [6] it was 37.6%. Also, the inhibition at 5 µg/mL came to 66.8% in [3], 60.8% in assay [4], 69.2% in assay [5] and 65.4% in assay [6].
In the case of `O=C(NC(=O)c1c(F)cccc1F)Nc1cc(Cl)c(OC(F)(F)C(F)C(F)(F)F)cc1Cl` (stereo not shown) [Lufenuron], the inhibition at 5 µg/mL was 22.6% with Maize armyworm egg (Maize armyworm egg, trial concentration 5 mg/L) and 59.1% in the assay on Diamondback moth egg (Diamondback moth egg, trial concentration 5 mg/L). The inhibition at 20 µg/mL with Maize armyworm egg (Maize armyworm egg, trial concentration 20 mg/L) is 58.4%; in the assay with Diamondback moth egg (Diamondback moth egg, trial concentration 20 mg/L) it was 75%.
For the compound `CC(COc1ccc(Oc2ccccc2)cc1)Oc1ccccn1` (stereo not shown) [Pyriproxyfen], the inhibition at 5 µg/mL in the assay on Bemisia tabaci egg (Bemisia tabaci egg, trial concentration 5 mg/L) was found to be 43.7%. In addition, the inhibition at 20 µg/mL in the assay on Bemisia tabaci egg (Bemisia tabaci egg, trial concentration 20 mg/L) stood at 86.8%. Besides, in the assay with Bradysia odoriphaga egg (Bradysia odoriphaga egg, trial concentration 50 mg/L, five days after application), the inhibition at 50 µg/mL was determined as 42.4%. Further, in the assay on Bradysia odoriphaga egg (Bradysia odoriphaga egg, trial concentration 100 mg/L, five days after application), the inhibition at 100 µg/mL amounted to 61.6%.
`COc1ccccc1C1OC(=O)CC1C(=O)OCCC(F)=C(F)F` (stereo not shown) [Trifluenfuronate, trifluenfuronate]: the inhibition at 5 µg/mL turned out to be 83.7% with Maize armyworm egg; 77.7% in assay [3]; 75.3% in assay [4]; 77% in assay [5]; 77.8% in assay [6]; 83.3% in the assay on Bemisia tabaci egg (Bemisia tabaci). Also, the inhibition at 5 µg/mL is 73.6% in the assay on Diamondback moth egg and 81.3% in the assay with Bradysia odoriphaga egg (Bradysia odoriphaga). In addition, the inhibition at 20 µg/mL with Maize armyworm egg amounted to 92.3%; with Bemisia tabaci egg (Bemisia tabaci), 98.7%; in the assay on Diamondback moth egg, 88.3%; with Bradysia odoriphaga egg (Bradysia odoriphaga), 95.3%. The LC50 in the assay on Tetranychus urticae egg was found to be 3.69 µg/mL (≈ 10.7 µM); in the assay with Panonychus citri egg, 3.28 µg/mL (≈ 9.53 µM); in assay [1], 4.12 µg/mL (≈ 12 µM); in assay [2] it was 3.66 µg/mL (≈ 10.6 µM); in assay [7] (area Fangcun, Taian), 3.89 µg/mL (≈ 11.3 µM); in [7] (area Jiyang, Jinan), 3.92 µg/mL (≈ 11.4 µM). The LC50 in assay [7] (area Qihe, Dezhou) turned out to be 3.79 µg/mL (≈ 11 µM); in assay [7] (area Shouguang, Weifang) it was 4.11 µg/mL (≈ 11.9 µM). For the same compound, the LC90 came to 18.01 µg/mL (≈ 52.3 µM) in the assay with Tetranychus urticae egg; 17.97 µg/mL (≈ 52.2 µM) in the assay on Panonychus citri egg; 20.77 µg/mL (≈ 60.3 µM) in assay [1]; 12.44 µg/mL (≈ 36.1 µM) in assay [2]; 21.95 µg/mL (≈ 63.8 µM) in [7] (area Fangcun, Taian); 20.94 µg/mL (≈ 60.8 µM) in assay [7] (area Jiyang, Jinan). Moreover, the LC90 stood at 15.62 µg/mL (≈ 45.4 µM) in assay [7] (area Qihe, Dezhou) and 19.37 µg/mL (≈ 56.3 µM) in assay [7] (area Shouguang, Weifang). The inhibition at 1 µg/mL in assay [3] came to 47.3%; in [4], 48.7%; in [5], 50.4%; in assay [6], 51%.
